# Source: patent publication US10721929B2, “Heterocyclic compound and harmful-arthropod-controlling agent containing same” (Sumitomo Chemical Company, Limited, priority 2016, dated 2020)
# Test system: western corn rootworm
# Experiment: Test Example 5: corn seedling immersion test, western corn rootworm larvae
# Type: in vivo
# Conditions: Zea mays, 120 h, corn seedlings immersed 30 seconds, ten 2-instar larvae, five days later, read-out: mortality rate of insects
# Description: 1 mg of each test compound is dissolved in 50 μL of a mixed solution of polyoxyethylene sorbitan monococoate:acetone=5.95 (volume ratio). To the resultant is added water containing 0.03% by volume of a spreading agent, to prepare a diluted solution containing a predetermined concentration of the test compound.
# Seeds of corn (Zea mays) are seeded onto a tray lined with wet Kimwipes, After the corn has grown for 5 days, die entire seedlings are immersed into the diluted solution for 30 seconds. Thereafter, two seedlings are put in a petri dish (diameter of 90 mm), and ten 2-instar larvae of western corn rootworm are released thereinto. Five days later, the number of dead insects is counted, and a mortality rate of insects is calculated by the following expression. Mortality rate of insects (%)=(number of dead insects/10)×100.
structure (smiles),measurement,value
CCSc1c(-c2ccc(OCC(F)(F)C(F)(F)F)cn2)nc2ccc(C(F)(F)F)cn12 [Compound 1],mortality at 500 ppm,≥ 80%
